Results as given in the supplement of paper PMC3937590.

Tests used:
Assay in all cases: -log10 GI50 (growth inhibition 50%) (-log10(M)); higher = more potent growth inhibition
184A1 = system: 184A1
Outline: (§1)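 A value carrying a < qualifier equals the top dose tested. Each compound was tested in triplicate on breast cancer cell lines for 72 hours at nine doses in 1:5 serial dilution, using a luminescence read-out against a time-zero plate. Nonlinear least squares fitting of a Gompertz curve gave GI50, the molar concentration causing the set level of growth inhibition, which is reported as its negative logarithm. The logarithm is base 10.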

BT483 = system: BT483
Outline: as §1

HCC1187 = system: HCC1187
Outline: as §1

HCC1954 = system: HCC1954
Outline: as §1

HCC38 = system: HCC38
Outline: as §1

HCC70 = system: HCC70
Outline: as §1

HS578T = system: HS578T
Outline: as §1

LY2 = system: LY2
Outline: as §1

MCF10F = system: MCF10F
Outline: as §1

MCF12A = system: MCF12A
Outline: as §1

MDAMB175VII = system: MDAMB175VII
Outline: as §1

MDAMB231 = system: MDAMB231
Outline: as §1

MDAMB361 = system: MDAMB361
Outline: as §1

MDAMB415 = system: MDAMB415
Outline: as §1

SKBR3 = system: SKBR3
Outline: as §1

SUM149PT = system: SUM149PT
Outline: as §1

SUM159PT = system: SUM159PT
Outline: as §1

SUM229PE = system: SUM229PE
Outline: as §1

T47D = system: T47D
Outline: as §1

UACC812 = system: UACC812
Outline: as §1

Row | SMILES | -log10 GI50 (BT483) | -log10 GI50 (HCC1187) | -log10 GI50 (HCC1954) | -log10 GI50 (HCC38) | -log10 GI50 (MDAMB175VII) | -log10 GI50 (MDAMB231) | -log10 GI50 (MDAMB361) | -log10 GI50 (MDAMB415) | -log10 GI50 (SKBR3) | -log10 GI50 (T47D) | -log10 GI50 (184A1) | -log10 GI50 (HCC70) | -log10 GI50 (HS578T) | -log10 GI50 (LY2) | -log10 GI50 (MCF10F) | -log10 GI50 (MCF12A) | -log10 GI50 (SUM149PT) | -log10 GI50 (SUM159PT) | -log10 GI50 (SUM229PE) | -log10 GI50 (UACC812)
1 | COC(=O)Nc1nc2cc(C(=O)c3ccccc3)ccc2[nH]1 [Mebendazole] | 5.67 | 5.4 | 6.82 | 6.48 | 6.6 | 6.46 | 6.24 | 6.28 | 6.49 | 5.66 | < 4.18 | 6.86 | 6.46 | 6.32 | 5.45 | 5.74 | 6.18 | 6.69 | 5.68 | 4.9
2 | CC[C@H](CO)Nc1nc(NCc2ccccc2O)c2ncn(C(C)C)c2n1 [Olomoucine II] | 5.24 | 5.18 | 4.95 | 5.53 | 5.14 | 5.17 | 5.01 | 5.32 | 4.96 | 5.18 | 5.5 | 5.47 | 5.18 | 5.46 | 5.03 | 5.22 | 5.18 | 5.32 | 5.13 | 5.19
3 | COC1=C2C[C@@H](C)C[C@H](OC)[C@H](O)[C@@H](C)/C=C(\C)[C@H](OC(N)=O)[C@@H](OC)/C=C\C=C(/C)C(=O)NC(=CC1=O)C2=O [Geldanamycin] | 6.84 | 7.8 | 8.14 | 7.56 | 7.75 | 7.65 | 7.78 | 7.52 | 7.79 | 7.62 | 8.41 | 7.09 | 7.28 | 7.24 | 8.14 | 7.73 | 8.22 | 8.21 | 7.91 | 7.97

Further lines, with some results ahead:

Row | -log10 GI50 (BT483) | -log10 GI50 (HCC1187) | -log10 GI50 (HCC1954) | -log10 GI50 (HCC38) | -log10 GI50 (MDAMB175VII) | -log10 GI50 (MDAMB231) | -log10 GI50 (MDAMB361) | -log10 GI50 (MDAMB415) | -log10 GI50 (SKBR3) | -log10 GI50 (T47D) | SMILES | -log10 GI50 (184A1) | -log10 GI50 (HCC70) | -log10 GI50 (HS578T) | -log10 GI50 (LY2) | -log10 GI50 (MCF10F) | -log10 GI50 (MCF12A) | -log10 GI50 (SUM149PT) | -log10 GI50 (SUM159PT) | -log10 GI50 (SUM229PE) | -log10 GI50 (UACC812)
4 | 5.44 | 6.89 | 5.32 | 6.74 | 4.72 | 4.95 | 5.1 | 5.58 | < 4.48 | 5.03 | Cc1cc(Nc2cc(N3CCN(C)CC3)nc(Sc3ccc(NC(=O)C4CC4)cc3)n2)n[nH]1 [VX-680] | 5.64 | 5.6 | 6.57 | 5.21 | 4.99 | 6.33 | 5.07 | 6.47 | 6.47 | 4.79
5 | 5.01 | 4.85 | 5.01 | 4.78 | 5.15 | 4.91 | 4.97 | 5.25 | 5.09 | 4.88 | Cc1c(O)cccc1C(=O)N[C@@H](CSc1ccccc1)[C@H](O)CN1C[C@H]2CCCC[C@H]2C[C@H]1C(=O)NC(C)(C)C [Nelfinavir] | 5.48 | 4.75 | 5.07 | 5.05 | 4.99 | 4.64 | 4.98 | 4.76 | 4.84 | < 4.48
